The values below come from ChEMBL document CHEMBL6078716, “Advances in Psychedelic Therapeutics: Novel Prodrugs and Derivatives for Enhanced Mental Health Treatment” (ACS Med Chem Lett, 2024).

In assay [1] the target is T1, 5-hydroxytryptamine receptor 1A (Homo sapiens, UniProt P08908).
T1 sequence (P08908 whole entry): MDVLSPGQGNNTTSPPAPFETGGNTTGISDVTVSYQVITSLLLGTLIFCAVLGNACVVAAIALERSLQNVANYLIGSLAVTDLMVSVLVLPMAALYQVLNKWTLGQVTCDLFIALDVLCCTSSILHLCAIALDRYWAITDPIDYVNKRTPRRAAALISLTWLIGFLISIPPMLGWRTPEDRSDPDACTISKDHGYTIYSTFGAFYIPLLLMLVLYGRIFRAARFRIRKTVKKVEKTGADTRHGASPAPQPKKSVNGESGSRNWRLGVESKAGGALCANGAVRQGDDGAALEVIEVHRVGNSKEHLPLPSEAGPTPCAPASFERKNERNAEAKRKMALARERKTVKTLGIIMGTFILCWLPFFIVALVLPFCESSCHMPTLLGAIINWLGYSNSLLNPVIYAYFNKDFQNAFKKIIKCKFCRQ
The experiment in a line: Binding affinity to 5-HT1A receptor (unknown origin) expressed in HEK293 cells assessed as inhibition constant. The assay is classed as cell-based.

In assay [2] the target is 5-hydroxytryptamine receptor 2A (Homo sapiens, UniProt P28223). The experiment in a line: Binding affinity to 5-HT2A receptor (unknown origin) expressed in HEK293 cells assessed as inhibition constant. The assay is classed as cell-based.

Molecules are shown by their SMILES.

Sequence of 5-hydroxytryptamine receptor 2A (P28223 whole entry): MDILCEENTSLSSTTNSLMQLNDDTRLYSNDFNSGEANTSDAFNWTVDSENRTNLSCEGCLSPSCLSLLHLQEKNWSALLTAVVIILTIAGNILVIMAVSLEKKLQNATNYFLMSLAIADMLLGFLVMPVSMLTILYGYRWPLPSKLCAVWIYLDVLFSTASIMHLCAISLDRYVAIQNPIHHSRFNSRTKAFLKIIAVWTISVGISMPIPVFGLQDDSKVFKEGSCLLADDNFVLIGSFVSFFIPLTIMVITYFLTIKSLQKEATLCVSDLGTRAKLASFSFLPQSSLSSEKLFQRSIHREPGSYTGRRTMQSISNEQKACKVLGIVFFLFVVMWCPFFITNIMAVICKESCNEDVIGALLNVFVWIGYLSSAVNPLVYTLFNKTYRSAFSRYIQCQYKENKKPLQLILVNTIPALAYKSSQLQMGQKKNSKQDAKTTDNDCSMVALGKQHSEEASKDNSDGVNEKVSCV

One may read the Ki as a measure of affinity in units of concentration, obtained from inhibition or displacement. `CN(C)CCc1c[nH]c2cccc(O)c12` [PSILOCIN]: in assay [1], the Ki was 0.567 µM. Take `CN(C)CCc1c[nH]c2cccc(OP(=O)(O)O)c12` [PSILOCYBIN]: the Ki in assay [1] and in assay [2] was greater than 10 µM throughout.
